One data set relates to Fusarium proliferatum. Kind of data set: Example I: production of fumonisin FB1 by Fusarium proliferatum (microtitre plates). The note with it: 120 h. The class given is cell-based.
Data set [1] relates to Fusarium graminearum. Kind of data set: microbe, parasite or virus in culture. The class given is cell-based.
The test system of data set [2] is Sphaerotheca fuliginea. Nature of the data set: Example L: in vivo test on Sphaerotheca fuliginea (powdery mildew on cucumber/protective). Conditions: Podosphaera fuliginea, 168 h, cucumber, protective, assessment 7 days after inoculation, read-out: % Wirkungsgrad. In short, it runs like this:
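Young cucumber plants sprayed at stated dosage with compound in DMF/alkylaryl polyglycol ether emulsifier diluted in water; inoculated with S. fuliginea spores one day later. Kept in greenhouse at 70% relative humidity, 23° C; protective activity assessed 7 days after inoculation.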

The test system of another data set is Alternaria solani. Kind of data set: Example M: in vivo test on Alternaria solani (leaf blotch disease/tomato/protective). The note with it: 168 h, tomato, protective, 500 ppm active substance, assessed 7 days after inoculation, read-out: % Wirkungsgrad (activity level). In short, it runs like this:
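Alternaria solani infection on tomato scored 7 days post-inoculation. Before inoculation, young plants received a protective spray at the stated application dose; formulation was compound mixed with N,N-dimethylformamide and emulsifier, water-diluted.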

In a further data set the test system is Venturia inaequalis. Nature of the data set: Example O: in vivo test on Venturia inaequalis (apple scab/protective). The note with it: 240 h, protective, assessment 10 days after inoculation, read-out: % Wirkungsgrad. The essentials: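 Young plants received a preventive spray of compound formulated as an emulsifier-containing aqueous dilution at the given application rate, then were inoculated with apple scab fungus. Disease was scored 10 days post-inoculation.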

In the next data set the test system is Botrytis cinerea. Kind of data set: Example P: in vivo test on Botrytis cinerea (gray mould on bean/protective). The note with it: 48 h, bean, protective, 250 ppm active substance, assessed 2 days after inoculation, read-out: % Wirkungsgrad (activity level). The essentials: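 Infection blotch size on leaves was scored 2 days after placing 2 Botrytis-colonised agar pieces per leaf. Inoculation followed drying of a protective spray applied to young plants at the stated dosage. Spray was prepared by diluting compound with solvent and alkylaryl polyglycol ether emulsifier in water.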

The next data set deals with Septoria tritici. Nature of the data set: Example R: in vivo test on Septoria tritici (leaf blotch in wheat/protective). Conditions: Zymoseptoria tritici, 504 h, wheat, protective, 1000 ppm active substance, assessed 21 days after inoculation, read-out: % Wirkungsgrad (activity level). On the procedure:
Solvent: 49 parts by weight N,N-dimethylacetamide Emulsifier: 1 part by weight alkylaryl polyglycol ethers For the preparation of a suitable active substance preparation, 1 part by weight of active substance is mixed with the stated quantities of solvent and emulsifier and the concentrate is diluted to the desired concentration with water. For the testing for protective activity, young plants are sprayed with the active substance preparation at the stated application dosage. After drying of the spray coating, the plants are sprayed with a spore suspension of Septoria tritici. […] 21 days after the inoculation, the assessment takes place.

The test system of data set [3] is Fusarium nivale (var. majus). Nature of the data set: whole plant or invertebrate. The class given is in vivo. Conditions: Microdochium nivale, in Triticum aestivum, 120 h, read-out: % Wirkungsgrad (activity level).
For data set [4], the system named is Fusarium graminearum. Nature of the data set: whole plant or invertebrate. The class given is in vivo. Conditions: in Hordeum vulgare, 120 h, read-out: % Wirkungsgrad (activity level).
A further data set relates to Peronospora parasitica. Kind of data set: Example A: in vivo test on Peronospora parasitica (downy mildew on white cabbage). The note with it: Hyaloperonospora parasitica, 120 h, cabbage plants sprayed 24 hours before inoculation, scored after 5 days, read-out: % Wirkungsgrad. On the procedure: In Vivo Test on Peronospora Parasitica (Downy Mildew on White Cabbage) An aqueous suspension of the active substance was prepared by homogenization of a mixture of acetone/Tween (dispersant)/dimethyl sulphoxide (DMSO) and subsequent dilution with water to the desired concentration. Cabbage plants (variety: Eminence) are sown in cultivation dishes on a peat-pozzolanic earth substrate (50/50) at 18-20° C. and sprayed at the cotyledon stage with the aqueous suspension described above. As a control, plants are sprayed with an aqueous solution with no active substance. After 24 hours, the plants are inoculated by spraying with an aqueous suspension of Peronospora parasitica spores (50,000 spores per ml). The spores are derived from infected plants. The inoculated cabbage plants are incubated for 5 days at ca. 20° C. in a moist atmosphere. After 5 days, they are scored in comparison with the control plants.

Data set [5] relates to Sphaerotheca fuliginea. Kind of data set: Example D: in vivo test on Sphaerotheca fuliginea (powdery mildew on cucumber). The note with it: Podosphaera fuliginea, 288 h, cucumber plants sprayed 24 hours before inoculation, scored after 12 days, read-out: % Wirkungsgrad. On the procedure:
In Vivo Test on Sphaerotheca Fuliginea (Powdery Mildew on Cucumber) An aqueous suspension of the active substance was prepared by homogenization of a mixture of acetone/Tween/dimethyl sulphoxide and subsequent dilution with water to the desired concentration. Cucumber plants (variety: Vert petit de Paris) are sown in cultivation dishes on a peat-pozzolanic earth substrate (50/50) at 20/23° C. and at the cotyledon stage Z10 sprayed with the aqueous suspension described above. As a control, plants are sprayed with an aqueous solution with no active substance. After 24 hours the plants are inoculated by spraying with an aqueous suspension of Sphaerotheca fuliginea spores (100,000 spores per ml). The spores are derived from a contaminated plant. The inoculated cucumber plants are incubated at ca. 20/25° C. at a relative atmospheric humidity of 60/70%. After 12 days they are scored in comparison with the control plants.

Data set [6] has as its system Mycosphaerella graminicola. Nature of the data set: Example G: in vivo test on Mycosphaerella graminicola (wheat leaf blotch disease). The note with it: Zymoseptoria tritici, wheat plants sprayed 24 hours before inoculation, scored after 21 to 28 days, read-out: % Wirkungsgrad. On the procedure:
In Vivo Test on Mycosphaerella Graminicola (Wheat Leaf Blotch Disease) An aqueous suspension of the active substance was prepared by homogenization of a mixture of acetone/Tween/dimethyl sulphoxide and subsequent dilution with water to the desired concentration. Wheat plants (variety: Scipion) are sown in cultivation dishes on a peat-pozzolanic earth substrate (50/50) at 12° C. and sprayed at the first-leaf stage (10 cm size) with the aqueous suspension described above. As a control, plants are sprayed with an aqueous solution with no active substance. After 24 hours the plants are inoculated by spraying with an aqueous suspension of Mycosphaerella graminicola spores (500,000 spores per ml). The spores are derived from a 7 day-old culture. […] After 21 to 28 days they are scored in comparison with the control plants.

For a further data set, the system named is Plasmopara viticola. Kind of data set: Example N: in vivo test on Plasmopara viticola (downy mildew, vine/protective). Conditions: 144 h, vine, protective, assessment 6 days after inoculation, read-out: % Wirkungsgrad. On the procedure:
Emulsifier: 1 part by weight alkylaryl polyglycol ethers For the preparation of a suitable active substance preparation, 1 part by weight of active substance is mixed with the stated quantities of solvent and emulsifier and the concentrate is diluted to the desired concentration with water. For the testing for protective activity, young plants are sprayed with the active substance preparation at the stated application dosage. […] The plants are then moistened and placed in an incubation cabin for 1 day. 6 days after the inoculation, the assessment takes place.

Another data set deals with Leptosphaeria nodorum. Kind of data set: Example Q: in vivo test on Leptosphaeria nodorum (glume blotch in wheat/protective). Conditions: Parastagonospora nodorum, 192 h, wheat, protective, assessment 8 days after inoculation, read-out: % Wirkungsgrad. On the procedure:
Solvent: 49 parts by weight N,N-dimethylacetamide Emulsifier: 1 part by weight alkylaryl polyglycol ethers For the preparation of a suitable active substance preparation, 1 part by weight of active substance is mixed with the stated quantities of solvent and emulsifier and the concentrate is diluted to the desired concentration with water. For the testing for protective activity, young plants are sprayed with the active substance preparation at the stated application dosage. After drying of the spray coating, the plants are sprayed with spores with a spore suspension of Leptosphaeria nodorum. […] 8 days after the inoculation, the assessment takes place.

Where [7] appears, read: 72 h, read-out: % Inhibition des Pilzwachstums bei 50 μM.
[8] abbreviates: 168 h, read-out: % Inhibition der DON/AcDON produktion bei 50 μM.
Where [9] appears, read: LogPA (logP of the stated pure compound or, in a mixture, of the main isomer, 1-substituted 3-aryl-1H-pyrazole).

Here are results for 10 compounds from patent US20110183978A1, “Phenylpyri(mi)dinylazoles” (Bayer CropScience AG, priority 2009, published 2011).

Structures are written as SMILES. Where two headings read alike, the source gives them in different places.

The term chromatographic logP denotes lipophilicity estimated from chromatographic retention. On to `O=C(Nc1cc(-c2cn(CC3CC3)nc2-c2ccc(F)cc2)ccn1)C1CC1` [Compound 224], for which the inhibition at 50 µM in the data set with Fusarium proliferatum (Fusarium proliferatum growth, OD 620, 5 days, read-out: % Inhibition des Pilzwachstums bei 50 μM) was 99%; in the data set on Fusarium proliferatum (Fusarium proliferatum, 5 days at 20° C., HPLC-MS/MS, read-out: % Inhibition der FB1 produktion bei 50 μM) it was 100%; in the data set on Fusarium graminearum [1] (setting [7]), 100%; with Fusarium graminearum [1] (setting [8]) it was 92%. In addition, the pest or weed control at 500 ppm in the data set on Sphaerotheca fuliginea [2] worked out at 99%; with Alternaria solani, 70%. Moreover, the pest or weed control at 100 ppm in the data set on Venturia inaequalis amounted to 71%. The pest or weed control at 250 ppm with Botrytis cinerea worked out at 99%. The pest or weed control at 1000 ppm (in the data set on Septoria tritici; in data set [3]; in the data set with Fusarium graminearum [4]) was 100% throughout. In the data set “physchem” (LogPA), this compound gave a chromatographic logP of 2.29.
Take `CCC(C)n1cc(-c2ccnc(NC(=O)CC3CC3)c2)c(-c2ccc(F)cc2)n1` (stereo not drawn) [Compound 159]: the inhibition at 50 µM in the data set with Fusarium graminearum [1] (setting [7]) stood at 102%; in the data set on Fusarium graminearum [1] (setting [8]), 99%. The pest or weed control at 500 ppm with Sphaerotheca fuliginea [2] is 97%; in the data set with Alternaria solani it was 94%. For the same compound, in the data set on Venturia inaequalis, the pest or weed control at 100 ppm stood at 97%. In the data set on Botrytis cinerea, the pest or weed control at 250 ppm came to 98%. The values for the pest or weed control at 1000 ppm (in the data set with Septoria tritici; in data set [3]; in the data set with Fusarium graminearum [4]) were 100%, 75% and 100%, respectively. Also, in “physchem” (setting [9]), the chromatographic logP is 3.
Regarding `Fc1cccc(F)c1-c1c(-c2ccncc2)cnn1C1CCC1` [Compound 15], the pest or weed control at 500 ppm came to 75% in the data set on Peronospora parasitica; 87% with Sphaerotheca fuliginea [5]; 97% in data set [6]; 95% in the data set with Sphaerotheca fuliginea [2]; 95% with Alternaria solani. Further, the chromatographic logP in “physchem” (setting [9]) was determined as 1.49.
`O=C(Nc1cc(-c2cn(CC(F)F)nc2-c2ccc(F)cc2)ccn1)C1CCC1` [Compound 240]: the pest or weed control at 500 ppm with Sphaerotheca fuliginea [2] was determined as 96%; with Alternaria solani, 88%. The pest or weed control at 100 ppm in the data set with Plasmopara viticola was determined as 90%; in the data set with Venturia inaequalis, 96%. Further, in the data set on Botrytis cinerea, the pest or weed control at 250 ppm was found to be 99%. For the same compound, the pest or weed control at 1000 ppm (with Septoria tritici; in data set [3]) was 75% in each case. In “physchem” (LogPA), the chromatographic logP worked out at 2.42.
As to `CC(=O)n1ccc2c(-c3cn(C4CCCCO4)nc3-c3ccc(F)cc3)ccnc21` (stereo not drawn) [Compound 81], the pest or weed control at 500 ppm worked out at 89% in the data set with Peronospora parasitica, 77% in the data set on Sphaerotheca fuliginea [5], 97% in data set [6] and 95% in the data set with Alternaria solani. In the data set “physchem” (setting [9]), the chromatographic logP turned out to be 3.85.
Take `CC(C)CC(=O)Nc1cc(-c2cn(CC(F)F)nc2-c2ccc(F)cc2)ccn1` [Compound 238]: the pest or weed control at 500 ppm with Sphaerotheca fuliginea [2] is 100%; in the data set with Alternaria solani, 94%. Moreover, the pest or weed control at 100 ppm in the data set on Plasmopara viticola is 88%; in the data set with Venturia inaequalis, 98%. In addition, in the data set with Botrytis cinerea, the pest or weed control at 250 ppm was found to be 93%. The pest or weed control at 1000 ppm in data set [3] was 75%; in the data set with Fusarium graminearum [4], 92%. The compound further yielded a chromatographic logP in the data set “physchem” (LogPA) of 2.63.
For the compound `O=C(CC1CC1)Nc1cc(-c2cn(CC3CC3(Cl)Cl)nc2-c2ccc(F)cc2)ccn1` (stereo not drawn) [Compound 251], the pest or weed control at 500 ppm in the data set with Sphaerotheca fuliginea [2] was determined as 96%; in the data set with Alternaria solani, 94%. The pest or weed control at 100 ppm with Venturia inaequalis was 84%. Also, in the data set with Botrytis cinerea, the pest or weed control at 250 ppm amounted to 95%. For the same compound, the pest or weed control at 1000 ppm in the data set with Fusarium graminearum [4] was 83%. The compound further displayed a chromatographic logP in the data set “physchem” (LogPA) of 3.3.
Consider `CCC(C)n1cc(-c2ccnc(NC(=O)C(C)C)c2)c(-c2ccc(F)cc2)n1` (stereo not drawn) [Compound 157], for which the inhibition at 50 µM with Fusarium graminearum [1] (setting [7]) and with Fusarium graminearum [1] (setting [8]) was 100% each time. Further, the pest or weed control at 500 ppm is 100% in the data set on Sphaerotheca fuliginea [2] and 94% in the data set with Alternaria solani. Besides, the pest or weed control at 100 ppm in the data set on Venturia inaequalis is 94%. The pest or weed control at 250 ppm in the data set with Botrytis cinerea was 78%. Besides, the figures for the pest or weed control at 1000 ppm (in the data set on Septoria tritici; in [3]; with Fusarium graminearum [4]) were 100%, 88% and 100%, respectively. Also, the chromatographic logP in the data set “physchem” (setting [9]) was 2.82.
Regarding `CC(C)(C)Cn1ncc(-c2ccncc2)c1-c1c(F)cccc1F` [Compound 6], the pest or weed control at 500 ppm with Peronospora parasitica worked out at 70%; with Sphaerotheca fuliginea [5], 95%; in data set [6], 85%. Besides, in “physchem” (setting [9]), the chromatographic logP was determined as 1.79.
As for `CCC(C)n1cc(-c2ccnc(NC(=O)C3CC3)c2)c(-c2ccc(F)cc2)n1` (stereo not drawn) [Compound 167], the values for the inhibition at 50 µM in the data set on Fusarium graminearum [1] (setting [7]) and in the data set with Fusarium graminearum [1] (setting [8]) were 100% and 99%, respectively. Moreover, the pest or weed control at 500 ppm in the data set on Sphaerotheca fuliginea [2] was found to be 100%. Also, the pest or weed control at 100 ppm in the data set on Venturia inaequalis amounted to 89%. Further, the pest or weed control at 250 ppm with Botrytis cinerea worked out at 100%. Besides, the pest or weed control at 1000 ppm was determined as 92% in the data set with Leptosphaeria nodorum, 100% in data set [3] and 100% in the data set on Fusarium graminearum [4]. The chromatographic logP in the data set “physchem” (LogPA) was 2.56.
